Experimental findings from article doi:10.1101/704536v1 (biorxiv, 2019) are described below.

For assay [1], the target named is T1, repeat Tau (K18) (Homo sapiens, UniProt P10636). Put plainly: ThS fluorescence, inhibition of heparin-induced aggregation. Format: biochemical.
For assay [2], the target named is T1, repeat Tau (K18). In words: UV-visible absorbance titration at […] nm. Format: binding.

T1 sequence (P10636 561-689 limits assumed): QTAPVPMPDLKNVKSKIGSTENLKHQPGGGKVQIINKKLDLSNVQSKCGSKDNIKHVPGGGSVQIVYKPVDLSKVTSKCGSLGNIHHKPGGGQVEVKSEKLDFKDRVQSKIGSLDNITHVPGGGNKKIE

Regarding `O=c1cc(-c2ccccc2)oc2cc(O)c(O)c(O)c12` [Baicalein], the half-inhibitory concentration (IC50) against repeat Tau (K18) [1] was found to be 35.8 µM. The molecule further had a Kd at repeat Tau (K18) [2] of 3.5 µM.
